What is called melting point is the temperature of the solid-liquid transition. The term IC50 denotes the concentration needed to halve the response being measured.

Data set [1] deals with T1, full-length human PKCι (Homo sapiens, UniProt P41743).
T1 construct: Recombinant, full-length human PKCι expressed in Sf21 insect cells is also commercially available; purchased; host or cells: Sf21 insect cells
T1 sequence (P41743 1-596): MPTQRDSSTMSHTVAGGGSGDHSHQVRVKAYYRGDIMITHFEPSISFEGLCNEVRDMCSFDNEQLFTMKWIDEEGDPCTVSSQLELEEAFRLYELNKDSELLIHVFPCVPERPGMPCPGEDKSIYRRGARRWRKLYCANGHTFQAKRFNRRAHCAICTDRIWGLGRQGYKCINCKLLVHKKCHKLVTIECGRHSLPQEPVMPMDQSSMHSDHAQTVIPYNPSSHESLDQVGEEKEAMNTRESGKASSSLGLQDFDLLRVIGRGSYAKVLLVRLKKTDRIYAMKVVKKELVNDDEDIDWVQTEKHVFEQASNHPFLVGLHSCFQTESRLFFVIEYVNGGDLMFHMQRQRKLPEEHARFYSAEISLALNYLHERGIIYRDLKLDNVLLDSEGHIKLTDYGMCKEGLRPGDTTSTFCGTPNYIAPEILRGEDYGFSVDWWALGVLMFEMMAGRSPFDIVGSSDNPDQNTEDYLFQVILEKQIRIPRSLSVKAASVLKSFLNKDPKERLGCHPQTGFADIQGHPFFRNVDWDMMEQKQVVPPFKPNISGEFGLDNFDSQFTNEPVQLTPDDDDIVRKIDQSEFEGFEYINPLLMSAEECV
The data set is described as follows: PKCι IC50 IMAP assay, full-length PKCι at 150 μM ATP. The format is biochemical. The settings on record: read-out: IC50 in IMAP assay against full length PKCi at 150 μM ATP. The method in brief: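 Phosphorylation of a 5FAM-tagged PKCε pseudopeptide-derived substrate (100 nM) by full-length recombinant human PKCι was monitored by IMAP fluorescence polarisation. ATP was held at 150 μM, five times its apparent KM, with 60 min room-temperature incubation.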

Data set [2] concerns follicular lymphoma. The settings on record: by targeting a PKCζ-MAPK-mTOR pathway; literature (Leseux et al.); cited from earlier work.
The subject of data set [3] is NSCLC cells. To be noted: pharmacological inhibition of PKCι; literature (Regala et al.); cited from earlier work.

Where only a bound is given, the exact number is not on record here.

With `c1ccc(Nc2cc(-c3nc(N4CCNCC4)c4c(C5CC5)cncc4n3)ccn2)cc1` [Example 481, [4-(5-Cyclopropyl-4-piperazin-1-yl-pyrido[3,4-d]pyrimidin-2-yl)-pyridin-2-yl]-phenyl-amine], the melting point was 221 to 226 °C.

`N#Cc1ccc(CC(=O)Nc2cc(-c3nc(N4CCNCC4)c4c(C5CC5)cncc4n3)ccn2)cc1` [Example 473, 2-(4-Cyano-phenyl)-N-[4-(5-cyclopropyl-4-piperazin-1-yl-pyrido[3,4-d]pyrimidin-2-yl)-pyridin-2-yl]-acetamide]: the melting point lay in the range of 200 to 203 °C. Further, the IC50 in data set [1] is less than 0.1 µM.

For “Rituximab: "the anti-CD20 therapeutic antibody rituximab"”, the follicular lymphoma proliferation result in data set [2] is recorded as “inhibits follicular lymphoma proliferation”.

`c1cc(-c2nc(N3CCNCC3)c3c(C4CC4)cncc3n2)cc(Nc2ccc(N3CCOCC3)nc2)n1` [Example 475, [4-(5-Cyclopropyl-4-piperazin-1-yl-pyrido[3,4-d]pyrimidin-2-yl)-pyridin-2-yl]-(6-morpholin-4-yl-pyridin-3-yl)-amine]: the melting point fell in the range of 217 to 219 °C. For the same molecule, the IC50 in data set [1] is less than 0.1 µM.

Consider `COc1cccc(Nc2cc(-c3nc(N4CCNCC4)c4c(OC)cncc4n3)ccn2)n1` [Example 448, [4-(5-Methoxy-4-piperazin-1-yl-pyrido[3,4-d]pyrimidin-2-yl)-pyridin-2-yl]-(6-methoxy-pyridin-2-yl)-amine], for which the melting point fell in the range of 189 to 191 °C. The IC50 in data set [1] is less than 0.1 µM.

With `O=C(O)CC([S-])C(=O)O.[Au+]` (centres unmarked) [aurothiomalate], the “growth of NSCLC cells in soft agar” value in data set [3] was “blocks the growth”.

In turn, `COc1cncc2nc(-c3ccnc(Nc4ccccc4)c3)nc(N3CC[C@H](O)[C@H](O)C3)c12` (racemic) [Example 436, (±)-cis-1-[5-Methoxy-2-(2-phenylamino-pyridin-4-yl)-pyrido[3,4-d]pyrimidin-4-yl]-piperidine-3,4-diol] had a melting point of 241 to 243 °C. In data set [1], the IC50 lay within 0.1 to 1 µM.

For the molecule `COc1cncc2nc(-c3ccnc(Nc4ccc(Cl)nc4)c3)nc(N3CCNCC3)c12` [Example 405, (6-Chloro-pyridin-3-yl)-[4-(5-methoxy-4-piperazin-1-yl-pyrido[3,4-d]pyrimidin-2-yl)-pyridin-2-yl]-amine], the melting point is 206 to 208 °C. The IC50 in data set [1] was less than 0.1 µM.

With `COc1cncc2nc(-c3ccnc(Nc4ccccc4)c3)nc(N3CCC(F)CC3)c12` [Example 462, {4-[4-(4-Fluoro-piperidin-1-yl)-5-methoxy-pyrido[3,4-d]pyrimidin-2-yl]-pyridin-2-yl}-phenyl-amine], the melting point is 202 to 205 °C. The IC50 in data set [1] fell in the range of 10 to 40 µM.

In turn, `Cc1cc(N2CCOCC2)ccc1Nc1cc(-c2nc(N3CCNCC3)c3c(C4CC4)cncc3n2)ccn1` [Example 474, [4-(5-Cyclopropyl-4-piperazin-1-yl-pyrido[3,4-d]pyrimidin-2-yl)-pyridin-2-yl]-(2-methyl-4-morpholin-4-yl-phenyl)-amine] displayed a melting point of 214 to 220 °C. In data set [1], the half-inhibitory concentration (IC50) is less than 0.1 µM.

`COc1cncc2nc(-c3ccnc(Nc4ccccc4)c3)nc(N3CC[C@H](CO)C3)c12` [Example 466, {(S)-1-[5-Methoxy-2-(2-phenylamino-pyridin-4-yl)-pyrido[3,4-d]pyrimidin-4-yl]-pyrrolidin-3-yl}-methanol] gave a melting point of 210 to 211 °C. Also, the IC50 in data set [1] fell in the range of 1 to 10 µM.

Molecule `COc1cncc2nc(-c3ccnc(Nc4ccccc4)c3)nc(N3CCC(C#N)CC3)c12` [Example 461, 1-[5-Methoxy-2-(2-phenylamino-pyridin-4-yl)-pyrido[3,4-d]pyrimidin-4-yl]-piperidine-4-carbonitrile] yielded a melting point of 242 to 244 °C. Besides, the IC50 in data set [1] lay within 1 to 10 µM.

Consider `COc1cncc2nc(-c3ccnc(Nc4ccccc4)c3)nc(N3CCCCC3)c12` [Example 459, [4-(5-Methoxy-4-piperidin-1-yl-pyrido[3,4-d]pyrimidin-2-yl)-pyridin-2-yl]-phenyl-amine], for which the melting point lay in the range of 221 to 223 °C. Also, the IC50 in data set [1] lay within 10 to 40 µM.

The molecule `c1cncc(Nc2cc(-c3nc(N4CCNCC4)c4c(C5CC5)cncc4n3)ccn2)c1` [Example 476, [4-(5-Cyclopropyl-4-piperazin-1-yl-pyrido[3,4-d]pyrimidin-2-yl)-pyridin-2-yl]-pyridin-3-yl-amine] came in with a melting point of 226 to 228 °C. Also, the IC50 in data set [1] was less than 0.1 µM.

On to `COc1cncc2nc(-c3ccnc(Nc4ccccc4)c3)nc(N3CC[C@@H](CO)C3)c12` [Example 465, {(R)-1-[5-Methoxy-2-(2-phenylamino-pyridin-4-yl)-pyrido[3,4-d]pyrimidin-4-yl]-pyrrolidin-3-yl}-methanol], for which the melting point lay in the range of 208 to 209 °C. Besides, the IC50 in data set [1] lay within 1 to 10 µM.

Consider `COc1cncc2nc(-c3ccnc(Nc4ncccn4)c3)nc(N3CCNCC3)c12` [Example 423, [4-(5-Methoxy-4-piperazin-1-yl-pyrido[3,4-d]pyrimidin-2-yl)-pyridin-2-yl]-pyrimidin-2-yl-amine], for which the melting point is 200 to 203 °C. The IC50 in data set [1] was 0.1 to 1 µM.

For the molecule `Clc1cc(-c2nc(N3CCN[C@@H](COCc4ccccc4)C3)c3c(C4CC4)cncc3n2)ccn1` [Example 733, 4-((R)-3-Benzyloxymethyl-piperazin-1-yl)-2-(2-chloro-pyridin-4-yl)-5-cyclopropyl-pyrido[3,4-d]pyrimidine], the IC50 in data set [1] lay in the range of 1 to 10 µM.

Regarding `Clc1cccc(Cl)c1Nc1cc(-c2nc(N3CCNCC3)c3c(C4CC4)cncc3n2)ccn1` [Example 539, [4-(5-Cyclopropyl-4-piperazin-1-yl-pyrido[3,4-d]pyrimidin-2-yl)-pyridin-2-yl]-(2,6-dichloro-phenyl)-amine], the IC50 in data set [1] is less than 0.1 µM.

On to `c1cc(-c2nc(N3CCNCC3)c3c(C4CCC4)cncc3n2)c2cc(C3CCCCC3)[nH]c2n1` [Example 2153, 5-Cyclobutyl-2-(2-cyclohexyl-1H-pyrrolo[2,3-b]pyridin-4-yl)-4-piperazin-1-yl-pyrido[3,4-d]pyrimidine], for which the IC50 in data set [1] is less than 0.1 µM.

On to `COc1cncc2nc(-c3ccncc3)nc(N3CCN(C)[C@@H](Cc4ccccc4)C3)c12` [Example 81, (2S)-2-benzyl-4-[5-methoxy-2-(pyridin-4-yl)pyrido[3,4-d]pyrimidin-4-yl]-1-methylpiperazine; formic acid], for which, in data set [1], the IC50 lay within 0.1 to 1 µM.

In the case of `COCc1cc2c(-c3nc(N4CCNCC4)c4c(C5CCC5)cncc4n3)ccnc2[nH]1` [Example 2080, 5-Cyclobutyl-2-(2-methoxymethyl-1H-pyrrolo[2,3-b]pyridin-4-yl)-4-piperazin-1-yl-pyrido[3,4-d]pyrimidine], the IC50 in data set [1] was less than 0.1 µM.

As for `CC(=O)N1CCC(Nc2nc(-c3ccnc(Nc4c(F)cccc4F)c3)nc3cncc(C4CC4)c23)CC1` [Example 2085, 1-(4-{5-Cyclopropyl-2-[2-(2,6-difluoro-phenylamino)-pyridin-4-yl]-pyrido[3,4-d]pyrimidin-4-ylamino}-piperidin-1-yl)-ethanone], in data set [1], the concentration for half-maximal inhibition (IC50) was 0.1 to 1 µM.

As to `CCc1cncc2nc(-c3ccncc3)nc(NC[C@@H](N)Cc3ccccc3)c12` [Example 137, N-[(2S)-2-amino-3-phenylpropyl]-5-ethyl-2-(pyridin-4-yl)pyrido[3,4-d]pyrimidin-4-amine], the IC50 in data set [1] is less than 0.1 µM.

Turning to `c1ccc2c(c1)[nH]c1nccc(-c3nc(N4CCNCC4)c4c(C5CCC5)cncc4n3)c12` [Example 2090, 4-(5-Cyclobutyl-4-piperazin-1-yl-pyrido[3,4-d]pyrimidin-2-yl)-9H-pyrido[2,3-b]indole], the concentration for half-maximal inhibition (IC50) in data set [1] was 0.1 to 1 µM.

As to `CCCCc1cncc2nc(-c3ccncc3)nc(N3CCNCC3)c12` [Example 135, 5-Butyl-4-piperazin-1-yl-2-pyridin-4-yl-pyrido[3,4-d]pyrimidine], the IC50 in data set [1] is less than 0.1 µM.

Source of the values: US9914730B2, “Azaquinazoline inhibitors of Atypical protein Kinase C” (Ignyta, Inc., priority 2012, dated 2018).
